# In article PMC7821884, “BRAF inhibition protects against hearing loss in mice” (Science Advances, 2020):
# What was measured:
# [1] = system: Tg(brn3c:GFP) zebrafish larvae neuromast HCs; assay: Zebrafish lateral line neuromast hair cell loss after cisplatin; assay type: in vivo
# Text: Lateral line neuromasts of zebrafish are a well-established model for the study of drug protection from cisplatin or aminoglycoside toxicity because their HCs are considered homologous to mammalian HCs and readily accessible to compounds in vivo ([47]–[49]). As in our previous studies, MI1 (medial neuromast 1) and O1-2 (otic line) neuromasts were examined in Tg(brn3c:GFP) zebrafish larvae 5 days after fertilization ([50], [51]). […] Green fluorescent protein (GFP) (brn3c) and otoferlin staining were used to identify neuromast HCs. In fig.
# Zebrafish (D. rerio) experimental larvae of either sex were obtained by pair mating of adult fish maintained at Boys Town National Research Hospital. We used zebrafish line Tg(brn3c:GFP) that expresses a membrane-bound GFP in HCs. Fish were maintained at 28.5°C in E3 media [5 mM NaCl, 0.17 mM KCl, 0.33 mM CaCl2, and 0.33 MgSO4 (pH 7.2)] at a density of 50 embryos/larvae per […] petri dish. Experimental animals were used at 5 days post-fertilization and cryo-anesthetized after treatment and before fixation. Average HC counts in our studies were obtained from the following three neuromasts: MI1 (medial neuromast 1) and O1 and O2 (otic line).
# [2] = system: HEI-OC1 cells; assay: Cell Titer-Glo cell viability assay, compound alone; assay type: cell-based; conditions: all concentrations tested
# Text: All compounds were further characterized via Cell Titer-Glo cell viability assay to determine toxicity of the compound alone in HEI-OC1 cells (table S1 and dataset in the Supplementary Materials). […] The other BRAF inhibitors had similar IC50 in the micromolar range and were nontoxic to cells (table S1).
# In these screens, caspase-3 cleavage was chosen as the end point indicating cisplatin-induced apoptosis, because it allowed the inhibition of cell death to be monitored at the level of any molecular target upstream of caspase-3 cleavage in the HEI-OC1 cell line. Cells were plated at a previously optimized concentration of 1600 cells per well in medium without γ-interferon to limit proliferation and tested against 50 μM cisplatin based on a previous dose–response curve. Tested compounds were dissolved in DMSO before addition to medium with a final DMSO concentration of <0.5%. The screens are described in detail in our previous publications ([12], [13]). […] Pifithrin-α was added to each plate as a screening quality control. The linearity of the Caspase-Glo 3/7 (Promega) assay, which enables the measurement of light emitted as a result of caspase-3/7 cleavage and is suitable for HTS, was validated, and it was verified that 0.5% DMSO had no effect on the cell death kinetics. Compounds were screened in triplicate at final concentrations ranging from 1 nM to 85 μM and incubated for 22 hours. […]
# [3] = system: P42 FVB mice; assay: Noise-induced hearing loss in adult mice (ABR, DPOAE, Ctbp2 puncta, pERK); assay type: in vivo, mouse
# Experimental: Noise injury cannot always be predicted, and pretreatment is often not an option.
# Compounds were dissolved in a mixture of 10% DMSO, 5% Tween 80 (P1754, Sigma-Aldrich), 40% PEG-E-300 (91462-1KG, Sigma-Aldrich), and 45% 0.9% saline.
# ABR in mice was measured for left ears as described previously with minor modifications ([13], [34]). In brief, ABR waveforms were recorded in a sound booth (Industrial Acoustic Company) by using subdermal needles positioned in the skull, below the pinna, and at the base of the tail, and the responses were fed into a low-impedance Medusa digital biological amplifier system (RA4L; TDT; 20-dB gain). At each frequency, the stimulus intensity was reduced from 90 to 0 dB in 10-dB steps to determine the threshold decibel SPL when the electrical response was just above the noise floor. ABR waveforms were averaged in response to 500 tone bursts. The recorded signals were filtered by a band-pass filter from 300 Hz to 3 kHz. Pretreatment ABR recordings of adult FVB mice (aged 6 weeks) were acquired 1 week before all treatments, and posttreatment ABR measurements were recorded 21 days after cisplatin treatment or 14 days after noise exposure. ABR threshold was determined by the presence of any of three or more of the five waveform peaks. […] All thresholds and shifts were determined independently by two experimenters for each mouse. Individual ABR wave 1 amplitudes were measured as the difference between the positive peak and the following negative trough.
# Mice were placed in individual cages in a custom-made acrylic chamber. The sound stimulus was produced by System RZ6 (TDT) equipment and amplified using a 75-A power amplifier (Crown). Sound was delivered to the acrylic chamber via a speaker horn (JBL). The SPL was calibrated with a 1/4-inch free-field microphone (PCB). Before experimental noise exposure, four quadrants of the cage inside the chamber were sampled with the 1/4-inch microphone to ensure that the SPL varied by <0.5 dB across the measured positions. Adult mice were then exposed to 2 hours of octave band noise (8 to 16 kHz) at 100 dB.
# Organs of Corti were costained with anti-Ctbp2 and anti–myosin VI antibodies. Confocal imaging was performed using a Zeiss 700 scanning confocal microscope with a 63× objective. Visualization and projections were performed using ZEN 2009 or ZEN 2012 software (Zeiss). Ctbp2 puncta were visualized and counted on the reconstructed three-dimensional images by using the ZEN 2009 or ZEN 2012 three-dimensional construct function as previously reported ([54]). […] Images were acquired around 16-kHz cochlear regions, and each image included 12 to 18 IHCs that were quantified as total number of Ctbp2 puncta divided by total number of IHCs per image.
smiles,measurement,setting,value
CC(C)(C)c1nc(-c2cccc(NS(=O)(=O)c3c(F)cccc3F)c2F)c(-c2ccnc(N)n2)s1 [dabrafenib],protection from cisplatin-induced neuromast HC loss,"[1]; 1 hour pretreatment, 6 hours 400 μM cisplatin, dabrafenib 100 nM",significant protection
same,toxic effect of compound alone on neuromast HCs,[1]; all concentrations tested,no toxic effect
same,"toxicity of the compound alone, cell viability assay",[2],nontoxic
same,loss of Ctbp2 puncta per IHC at 16-kHz region,[3]; 100 mg/kg pretreatment,partially rescued
same,effect on noise-reduced 16-kHz ABR wave 1 amplitude,"[3]; 100 mg/kg pretreatment, 80- and 90-dB SPL",significantly mitigated
same,noise-induced ERK phosphorylation in SCs,"[3]; pretreatment, 3 hours after noise",reduced ERK phosphorylation
